{"source": "patent US20150342234A1", "about": "“Steviol Glycoside Compositions Sensory Properties” (Evolva SA, priority 2012, published 2015)", "key": {"[1]": {"system": "panel of 9 tasters (8 trained sensory panellists and 1 Evolve employee)", "experiment": "Sensory evaluation by rapid profiling protocol, blinded samples, two replicates", "type": "in vivo", "details": "for Sweetness build Fl. mean score / Sweetness onset Fl. mean score: after 1st sip, mean of Rep 1 and Rep 2, 0.0385% w/v in mineral water; for Sweetness build Fl. mean score / Sweetness onset Fl. mean score / Acid At. mean score / Artificial sweetness At. mean score / Bitter At. mean score / Overall Sweetness At. mean score / liquorice At. mean score / Acid Fl. mean score / Artificial sweetness Fl. mean score / Bitter Fl. mean score / Liquorice FL mean score / Overall Sweetness Fl. mean score / Body/ thickness Mf. mean score / Mouth coating Mf. mean score / Mouth drying Mf. mean score / Mouth watering Mf. mean score / Tingling Mf. mean score: 0-100 scale; for Acid At. mean score / Artificial sweetness At. mean score / Bitter At. mean score / Overall Sweetness At. mean score / liquorice At. mean score: aftertaste; for Acid At. mean score / Artificial sweetness At. mean score / Bitter At. mean score / Overall Sweetness At. mean score / liquorice At. mean score / Acid Fl. mean score / Artificial sweetness Fl. mean score / Bitter Fl. mean score / Liquorice FL mean score / Overall Sweetness Fl. mean score / Body/ thickness Mf. mean score / Mouth coating Mf. mean score / Mouth drying Mf. mean score / Mouth watering Mf. mean score / Tingling Mf. mean score: mean of 2 replicates, 0.0385% w/v; for Acid Fl. mean score / Artificial sweetness Fl. mean score / Bitter Fl. mean score / Liquorice FL mean score / Overall Sweetness Fl. mean score: flavor; for Acid Fl. mean score / Artificial sweetness Fl. mean score / Bitter Fl. mean score / Liquorice FL mean score / Overall Sweetness Fl. mean score / Body/ thickness Mf. mean score: after second and third sip; for Body/ thickness Mf. mean score / Mouth coating Mf. mean score / Mouth drying Mf. mean score / Mouth watering Mf. mean score / Tingling Mf. mean score: mouthfeel", "protocol": "(§1) A sensory evaluation of the sample isolated in Example 5 was conducted by a commercial consumer research and sensory analysis company, using a rapid profiling protocol. The sensory profile of the yeast fermented Reb A product was compared to that of a commercially available RebA product by a panel of 9 tasters (8 trained sensory panellists and 1 Evolve employee), over a two hour period. […] Both products were dissolved in Highland Springs bottled mineral water (Highland Spring Group, Blackford, Pertishire, United Kingdom) at 0.0385% w/v, which is approximately equivalent in sweetness to 8% sucrose.\nAfter a break, the panelists were presented one blinded sample of the yeast-derived RebA solution and one blinded sample of the commercial RebA solution. Sample were presented in a balanced order to the panelists. For each blinded sample, panelists carried out the following tasting procedure. Panelists were instructed take one sip of the sample and score the Sweetness Build and Sweetness Onset attributes. A second and third sip of the sample were then taken, and panelists were instructed to score Flavor Attributes and Mouth Feel attribute Body/thickness. Each panelist then took a final sip of the sample and was asked to score Aftertaste and Mouth Sensations at 20 seconds and 120 seconds after the final sip.\nAll panellist scores were entered into a computer using Compusense® data collection software (Compusense, Guelph, Ontario, Canada). Agreed reference scores were marked on the scales as a guide. A rest period of 5 minutes duration was observed between samples and palate cleansers of Carr's® water crackers (Kellogg's, Battle Creek, Mich.) and Highland Spring bottled mineral water applied during this time.\nAfter one replicate of testing had been completed, panelists discussed differences between products. Panelists thought there were some subtle differences between products but no new flavors, off flavors, or mouth sensations were experienced. It was therefore decided to carry out a second replicate testing of the two Reb A samples using the same vocabulary and different blinding codes. The same tasting procedure was used for the second replicate as that used for the first replicate.\nMean scores were calculated for each attribute and sample over the two replicates (Rep 1 and Rep 2). Table 16 provides the mean scores for each attribute. Scores in bold shown a statistically significant difference between the two RebA samples."}, "[2]": {"system": "panel of 9 tasters (8 trained sensory panellists and 1 Evolve employee)", "experiment": "Agreed reference intensity scores for the commercial Reb A reference sample (vocabulary determination)", "type": "in vivo", "details": "agreed approximate intensity score, 0-100 scale; 0.0385% w/v", "protocol": "as §1\nAn appropriate vocabulary was determined using the commercial Reb A solution as a reference sample. As a starting point, the panel used an attribute vocabulary agreed to for previous sweetener sensory analyses, including sweetness onset time, sweetness build, sweetness, bitterness, etc. Panelists discussed and agreed which of the attributes were present in the reference sample and also agreed on approximate intensity scores on a 0-100 scale for each attribute. Table 15 describes each characteristic that was assessed and how each characteristic was scored for the reference sample."}, "[3]": {"details": "first block (20 seconds after final sip)"}, "[4]": {"details": "second block (120 seconds after final sip)"}}}
{"molecule": "C=C1C[C@@]23CC[C@H]4[C@@](C)(CCC[C@@]4(C)C(=O)O[C@@H]4O[C@H](CO)[C@@H](O)[C@H](O)[C@H]4O)[C@@H]2CC[C@]1(O[C@@H]1O[C@H](CO)[C@@H](O)[C@H](O[C@@H]2O[C@H](CO)[C@@H](O)[C@H](O)[C@H]2O)[C@H]1O[C@@H]1O[C@H](CO)[C@@H](O)[C@H](O)[C@H]1O)C3", "note": "[Commercial RebA, rebaudioside A]", "values": [{"measurement": "Sweetness build Fl. mean score", "setting": "[1]", "result": 34.5}, {"measurement": "Sweetness onset Fl. mean score", "setting": "[1]", "result": 5.6}, {"measurement": "Acid At. mean score", "setting": "[1]; [3]", "result": 8.5}, {"measurement": "Artificial sweetness At. mean score", "setting": "[1]; [3]", "result": 40.8}, {"measurement": "Bitter At. mean score", "setting": "[1]; [3]", "result": 22.1}, {"measurement": "Overall Sweetness At. mean score", "setting": "[1]; [3]", "result": 52.8}, {"measurement": "liquorice At. mean score", "setting": "[1]; [3]", "result": 21.1}, {"measurement": "Acid At. mean score", "setting": "[1]; [4]", "result": 8.9}, {"measurement": "Artificial sweetness At. mean score", "setting": "[1]; [4]", "result": 32.6}, {"measurement": "Bitter At. mean score", "setting": "[1]; [4]", "result": 20.6}, {"measurement": "Overall Sweetness At. mean score", "setting": "[1]; [4]", "result": 49.6}, {"measurement": "liquorice At. mean score", "setting": "[1]; [4]", "result": 16.3}, {"measurement": "Acid Fl. mean score", "setting": "[1]", "result": 10.6}, {"measurement": "Artificial sweetness Fl. mean score", "setting": "[1]", "result": 54.0}, {"measurement": "Bitter Fl. mean score", "setting": "[1]", "result": 20.7}, {"measurement": "Liquorice FL mean score", "setting": "[1]", "result": 18.0}, {"measurement": "Overall Sweetness Fl. mean score", "setting": "[1]", "result": 61.7}, {"measurement": "Body/ thickness Mf. mean score", "setting": "[1]", "result": 39.4}, {"measurement": "Mouth coating Mf. mean score", "setting": "[1]; [3]", "result": 27.4}, {"measurement": "Mouth drying Mf. mean score", "setting": "[1]; [3]", "result": 40.1}, {"measurement": "Mouth watering Mf. mean score", "setting": "[1]; [3]", "result": 10.9}, {"measurement": "Tingling Mf. mean score", "setting": "[1]; [3]", "result": 13.0}, {"measurement": "Mouth coating Mf. mean score", "setting": "[1]; [4]", "result": 26.3}, {"measurement": "Mouth drying Mf. mean score", "setting": "[1]; [4]", "result": 42.7}, {"measurement": "Mouth watering Mf. mean score", "setting": "[1]; [4]", "result": 14.7}, {"measurement": "Tingling Mf. mean score", "setting": "[1]; [4]", "result": 12.9}, {"measurement": "sweetness build score compared with the yeast derived RebA sample", "setting": "[1]; time to peak in sweetness intensity, 95% confidence level", "result": "significantly longer"}, {"measurement": "Acidic (Flavor/Aftertaste) Score after 3 d sip (20 sec)", "setting": "[2]", "result": 10}, {"measurement": "Acidic (Flavor/Aftertaste) Score after 3 d sip (2 min)", "setting": "[2]", "result": 10}, {"measurement": "Acidic (Flavor/Aftertaste) Score after 3 d sip (immediate)", "setting": "[2]", "result": 10}, {"measurement": "Artificial sweetness (Flavor/Aftertaste) Score after 3 d sip (20 sec)", "setting": "[2]", "result": 35}, {"measurement": "Artificial sweetness (Flavor/Aftertaste) Score after 3 d sip (2 min)", "setting": "[2]", "result": 20}, {"measurement": "Artificial sweetness (Flavor/Aftertaste) Score after 3 d sip (immediate)", "setting": "[2]", "result": 55}, {"measurement": "Bitter (Flavor/Aftertaste) Score after 3 d sip (20 sec)", "setting": "[2]", "result": 20}, {"measurement": "Bitter (Flavor/Aftertaste) Score after 3 d sip (2 min)", "setting": "[2]", "result": 20}, {"measurement": "Bitter (Flavor/Aftertaste) Score after 3 d sip (immediate)", "setting": "[2]", "result": 10}, {"measurement": "Body/thickness (Mouthfeel) Score after 3 d sip (immediate)", "setting": "[2]", "result": 40}, {"measurement": "Liquorice (Flavor/Aftertaste) Score after 3 d sip (20 sec)", "setting": "[2]", "result": 35}, {"measurement": "Liquorice (Flavor/Aftertaste) Score after 3 d sip (2 min)", "setting": "[2]", "result": 30}, {"measurement": "Liquorice (Flavor/Aftertaste) Score after 3 d sip (immediate)", "setting": "[2]", "result": 30}, {"measurement": "Mouth coating (Mouthfeel) Score after 3 d sip (20 sec)", "setting": "[2]", "result": 30}, {"measurement": "Mouth coating (Mouthfeel) Score after 3 d sip (2 min)", "setting": "[2]", "result": 30}, {"measurement": "Mouth drying (Mouthfeel) Score after 3 d sip (20 sec)", "setting": "[2]", "result": 35}, {"measurement": "Mouth drying (Mouthfeel) Score after 3 d sip (2 min)", "setting": "[2]", "result": 35}, {"measurement": "Mouth watering (Mouthfeel) Score after 3 d sip (20 sec)", "setting": "[2]", "result": 0}, {"measurement": "Mouth watering (Mouthfeel) Score after 3 d sip (2 min)", "setting": "[2]", "result": 20}, {"measurement": "Overall Sweetness (Flavor/Aftertaste) Score after 3 d sip (20 sec)", "setting": "[2]", "result": 50}, {"measurement": "Overall Sweetness (Flavor/Aftertaste) Score after 3 d sip (2 min)", "setting": "[2]", "result": 50}, {"measurement": "Overall Sweetness (Flavor/Aftertaste) Score after 3 d sip (immediate)", "setting": "[2]", "result": 70}, {"measurement": "Sweetness build (Flavor) Score after 1st sip", "setting": "[2]", "result": 30}, {"measurement": "Sweetness onset (Flavor) Score after 1st sip", "setting": "[2]", "result": 5}, {"measurement": "Tingling (Mouthfeel) Score after 3 d sip (20 sec)", "setting": "[2]", "result": 10}, {"measurement": "Tingling (Mouthfeel) Score after 3 d sip (2 min)", "setting": "[2]", "result": 5}]}
{"molecule": "C=C1C[C@@]23CC[C@H]4[C@@](C)(CCC[C@@]4(C)C(=O)O[C@@H]4O[C@H](CO)[C@@H](O)[C@H](O)[C@H]4O)[C@@H]2CC[C@]1(O[C@@H]1O[C@H](CO)[C@@H](O)[C@H](O[C@@H]2O[C@H](CO)[C@@H](O)[C@H](O)[C@H]2O)[C@H]1O[C@@H]1O[C@H](CO)[C@@H](O)[C@H](O)[C@H]1O)C3", "note": "[Yeast derived Reb A, rebaudioside A]", "values": [{"measurement": "Sweetness build Fl. mean score", "setting": "[1]", "result": 30.2}, {"measurement": "Sweetness onset Fl. mean score", "setting": "[1]", "result": 5.5}, {"measurement": "Acid At. mean score", "setting": "[1]; [3]", "result": 6.9}, {"measurement": "Artificial sweetness At. mean score", "setting": "[1]; [3]", "result": 33.8}, {"measurement": "Bitter At. mean score", "setting": "[1]; [3]", "result": 17.2}, {"measurement": "Overall Sweetness At. mean score", "setting": "[1]; [3]", "result": 49.6}, {"measurement": "liquorice At. mean score", "setting": "[1]; [3]", "result": 19.2}, {"measurement": "Acid At. mean score", "setting": "[1]; [4]", "result": 5.5}, {"measurement": "Artificial sweetness At. mean score", "setting": "[1]; [4]", "result": 30.0}, {"measurement": "Bitter At. mean score", "setting": "[1]; [4]", "result": 18.1}, {"measurement": "Overall Sweetness At. mean score", "setting": "[1]; [4]", "result": 46.2}, {"measurement": "liquorice At. mean score", "setting": "[1]; [4]", "result": 16.2}, {"measurement": "artificial sweetness score compared with the commercial RebA sample", "setting": "[1]; at 20 seconds", "result": "significantly less"}, {"measurement": "bitter score compared with the commercial RebA sample", "setting": "[1]; at 20 seconds, not statistically significantly different", "result": "lower"}, {"measurement": "Acid Fl. mean score", "setting": "[1]", "result": 8.3}, {"measurement": "Artificial sweetness Fl. mean score", "setting": "[1]", "result": 41.8}, {"measurement": "Bitter Fl. mean score", "setting": "[1]", "result": 11.8}, {"measurement": "Liquorice FL mean score", "setting": "[1]", "result": 17.2}, {"measurement": "Overall Sweetness Fl. mean score", "setting": "[1]", "result": 58.5}, {"measurement": "Body/ thickness Mf. mean score", "setting": "[1]", "result": 37.1}, {"measurement": "Mouth coating Mf. mean score", "setting": "[1]; [3]", "result": 28.9}, {"measurement": "Mouth drying Mf. mean score", "setting": "[1]; [3]", "result": 40.8}, {"measurement": "Mouth watering Mf. mean score", "setting": "[1]; [3]", "result": 10.1}, {"measurement": "Tingling Mf. mean score", "setting": "[1]; [3]", "result": 9.8}, {"measurement": "Mouth coating Mf. mean score", "setting": "[1]; [4]", "result": 24.7}, {"measurement": "Mouth drying Mf. mean score", "setting": "[1]; [4]", "result": 39.8}, {"measurement": "Mouth watering Mf. mean score", "setting": "[1]; [4]", "result": 15.7}, {"measurement": "Tingling Mf. mean score", "setting": "[1]; [4]", "result": 8.8}, {"measurement": "off flavors", "setting": "[1]; panellist reports", "result": "no reports of off flavors"}]}
